Data taken from US7989393B2, “Methods of controlling algae with thaxtomin and thaxtomin compositions” (priority 2007, dated 2011).

What was measured:
[1] = system: algae (mix); test: Water and algae mix in a test tube; format: cell-based, green algae; conditions: 10 mMol (2,840 ppm) in 2 ml water and algae mix
Method: Thaxtomin was added to water and algae in a test tube.
Metolachlor (2-chloro-N-(6-ethyl-o-tolyl)-N-[(1RS)-2-methoxy-1-methylethyl]acetamide) is a known pre-emergent herbicide commonly used to control annual grasses and some broadleaves such as Eastern black nightshade and pigweeds.

[2] = system: Batrachospermum spp.; test: Bioactivity of purified thaxtomin verse CuSO4, algae growth bioassay; format: cell-based; set-up: key: ++ = visible death; + = growth inhibition; − = no visible growth inhibition; conditions: 2 ppm, two weeks
Method: (§1) Purified thaxtomin was used for a bioassay test and its efficacy evaluated and compared with copper sulphate, an active ingredient for many copper based algaecides. The bioassay was run for two weeks and inhibition of algae growth was evaluated.

[3] = system: Oscillatoria spp.; test: as above; format: cell-based; set-up: key: ++ = visible death; + = growth inhibition; − = no visible growth inhibition; conditions: 2 ppm, two weeks
Method: as §1

[4] = system: Spirogyra spp.; test: as above; format: cell-based; set-up: key: ++ = visible death; + = growth inhibition; − = no visible growth inhibition; conditions: 2 ppm, two weeks
Method: as §1

[5] = system: Rhodymenia spp.; test: as above; format: cell-based; set-up: key: ++ = visible death; + = growth inhibition; − = no visible growth inhibition; conditions: 2 ppm, two weeks
Method: as §1

[6] = system: Oedogonium spp.; test: as above; format: cell-based; set-up: key: ++ = visible death; + = growth inhibition; − = no visible growth inhibition; conditions: 2 ppm, two weeks
Method: as §1

[7] = system: the tested algae; test: Purified thaxtomin versus copper sulphate bioassay (text summary of Example 5); format: cell-based; conditions: 2 ppm (commercial recommended rate); two weeks
Method: as §1

## CCc1cccc(C)c1N(C(=O)CCl)C(C)COC (racemic) [Metolachlor, 2-chloro-N-(6-ethyl-o-tolyl)-N-[(1RS)-2-methoxy-1-methylethyl]acetamide]
[1]
  Results: appearance of water and algae mix: did not show any algaestatic and/or algaecidal activity

## O=S(=O)([O-])[O-].[Cu+2] [CuSO4, copper sulphate]
[2]
  Bioactivity (inhibition of algae growth): −
[3]
  Bioactivity (inhibition of algae growth): −
[4]
  Bioactivity (inhibition of algae growth): +
[5]
  Bioactivity (inhibition of algae growth): −
[6]
  Bioactivity (inhibition of algae growth): −
[7]
  efficacy against the tested organisms: not very effective
